The results in this text go back to patent US20220251084A1, “PROGRANULIN MODULATORS AND METHODS OF USING THE SAME” (ARKUDA THERAPEUTICS, priority 2019, published 2022).

Counter-ions that a name gives are not always drawn.

For one assay, the system named is progranulin (PGRN) secretion, BV-2 cells. Briefly: PGRN assay: progranulin induction cellular assay (ELISA of secreted mouse PGRN). It is filed as cell-based.
Conditions: not given
The protocol:
Cellular Assays: To measure the efficacy of compounds, a progranulin induction cellular assay in mouse primary microglia (pMG), primary cortical neurons, and BV-2 cell lines is used. BV-2 cells are split the day before plating into a 96 well plate format at approximately 80%. Cells should be plated the day before and allowed for 1 hour attachment period and for 16 hour incubation. […] Standard ELISA kits to measure PGRN are available from vendors such as Adipogen, R&D, and Biovendor.
(In general: ELISA stands for enzyme-linked immunosorbent assay.)
A word on the EC50: it is the concentration at which the effect is half-maximal. Low readings indicate greater potency, high ones weaker potency. Turning to `O=C(O[C@@H]1CN2CCC1CC2)N1CCc2ccsc2C1c1ccc(F)cc1` (stereo partly drawn) [Compound 2122, (S)-quinuclidin-3-yl 7-(4-fluorophenyl)-4,7-dihydrothieno[2,3-c]pyridine-6(5H)-carboxylate], the EC50 was found to be 3280 nM. The same measure, in the same setting: the same measure for `N#Cc1ccc2c(c1)[C@H](c1ccc(F)cc1)N(C(=O)O[C@@H]1CN3CCC1CC3)CC2` [Compound 2035]: greater than 10000 nM.

The same assay, now with this note: Mus musculus, BV-2.
`CNC(=O)c1ccc2c(c1)[C@H](c1ccc(F)cc1)N(C(=O)O[C@@H]1CN3CCC1CC3)CC2` [Compound 2065] gave an EC50 greater than 10000 nM. `CNC(=O)c1ccc2c(c1)CCN(C(=O)O[C@@H]1CN3CCC1CC3)[C@@H]2c1ccc(F)cc1` [Compound 2101]: the EC50 is greater than 10000 nM. On the same count and under the same terms, the same measure for `O=C(O[C@@H]1CN2CCC1CC2)N1CCc2ccccc2[C@H]1c1ccc2[nH]c(=O)sc2c1` [Compound 2012]: greater than 10000 nM; for `CNC(=O)c1ccc2c(c1)CCN(C(=O)O[C@@H]1CN3CCC1CC3)[C@H]2c1ccc(F)cc1` [Compound 2100]: greater than 10000 nM.

Staying with this assay, now noted: Mus musculus, BV-2, PGRN assay, Table C; secreted mouse PGRN in cell culture medium, ELISA.
As for `CN1CC2COC[C@@H](C1)[C@H]2OC(=O)N1CCc2ccccc2[C@@H]1c1ccc(F)cc1` (single isomer, unassigned) [Compound 2106], the concentration for a half-maximal effect (EC50) is greater than 10000 nM. Take `O=C(N[C@H]1CCCNC1)N1CCc2ccccc2[C@@H]1c1ccc(F)cc1` [Compound 2171]: the midpoint of the response, the EC50, lay at 130 nM. For the compound `C#CCOc1ccc2c(c1)[C@H](c1ccc(F)cc1)N(C(=O)OCC13CCN(CC1)CC3)CC2` [Compound 2052, (S)-quinuclidin-4-ylmethyl 1-(4-fluorophenyl)-7-(prop-2-ynyloxy)-3,4-dihydroisoquinoline-2(1H)-carboxylate], the EC50 was 6820 nM. As to `COC(C(=O)N1CCc2ccccc2[C@@H]1c1ccc(F)cc1)C1CN2CCC1CC2` (stereo partly drawn) [Compound 2175, 1-((S)-1-(4-fluorophenyl)-3,4-dihydroisoquinolin-2(1H)-yl)-2-methoxy-2-(quinuclidin-3-yl) ethenone], a half-maximal effect (EC50) was put at 4130 nM. As to `C#CCN1CCC(COC(=O)N2CCc3ccccc3[C@@H]2c2ccc(F)cc2)CC1` [Compound 2194, (1-(prop-2-yn-1-yl)piperidin-4-yl)methyl (S)-1-(4-fluorophenyl)-3,4-dihydroisoquinoline-2(1H)-carboxylate], the EC50 was 3200 nM.

`O=C1C[C@@H](COC(=O)N2CCc3ccccc3[C@@H]2c2ccc(F)cc2)CCN1` (single isomer, unassigned) [Compound 2186, (1 S)-(2-oxopiperidin-4-yl)methyl 1-(4-fluorophenyl)-3,4-dihydroisoquinoline-2(1H)-carboxylate]: the EC50 was greater than 10000 nM. For `O=C(NCC12CCN(CC1)CC2)N1CCc2ccccc2[C@@H]1c1ccc(F)cc1` [Compound 2178], the EC50 turned out to be 590 nM. This lies in the sub-micromolar range.

`COC(=O)c1ccc2c(c1)CCN(C(=O)OCC13CCN(CC1)CC3)[C@@H]2c1ccc(F)cc1` [Compound 2073] showed an EC50 greater than 10000 nM. As for `O=C(OCC1CCNCC1)N1CCc2ccccc2[C@@H]1c1ccc(F)cc1` [Compound 2170], the EC50 was 1590 nM.

`N#Cc1ccc2c(c1)[C@@H](c1ccc(F)cc1)N(C(=O)N[C@@H]1CN3CCC1CC3)CC2` [Compound 2039, 7-cyano-1-(4-fluorophenyl)-N—((S)-quinuclidin-3-yl)-3,4-dihydroisoquinoline-2(1H)-carboxamide] yielded an EC50 greater than 10000 nM. Take `CN1C2CCC1CC(OC(=O)N1CCc3ccccc3[C@@H]1c1ccc(F)cc1)C2` (stereo partly shown) [Compound 2007]: the EC50 turned out to be 1190 nM. For the compound `CNC(=O)c1ccc2c(c1)CCN(C(=O)N[C@@H]1CN3CCC1CC3)[C@@H]2c1ccc(F)cc1` [Compound 2091], the EC50 is greater than 10000 nM. Consider `O=C(OCC12CCN(CC1)CC2)N1CCc2ccccc2[C@@H]1c1cc(F)c(F)c(F)c1` [Compound 2147], for which the EC50 came to 4740 nM. On to `CNC(=O)c1ccc2c(c1)CCN(C(=O)N[C@@H]1CN3CCC1CC3)[C@H]2c1ccc(F)cc1` [Compound 2090], for which the EC50 is greater than 10000 nM. `O=C(NCC1CCNCC1)N1CCc2ccccc2[C@@H]1c1ccc(F)cc1` [Compound 2165]: the EC50 was greater than 10000 nM.

The compound `C#CCOCCN1CCC(OC(=O)N2CCc3ccccc3[C@@H]2c2ccc(F)cc2)CC1` [Compound 2197, 1-(2-(prop-2-yn-1-yloxy)ethyl)piperidin-4-yl (S)-1-(4-fluorophenyl)-3,4-dihydroisoquinoline-2(1H)-carboxylate] returned an EC50 of 1060 nM.

Take `CNC(=O)c1ccc2c(c1)[C@H](c1ccc(F)cc1)N(C(=O)N[C@@H]1CN3CCC1CC3)CC2` [Compound 2118, (S)-1-(4-fluorophenyl)-N7-methyl-N2-((S)-quinuclidin-3-yl)-3,4-dihydroisoquinoline-2,7(1H)-dicarboxamide]: the EC50 is greater than 10000 nM. `O=C(OC1CC2CCN(C2)C1)N1CCc2ccccc2[C@@H]1c1ccc(F)cc1` (stereo partly shown) [Compound 2002] showed an EC50 of 748 nM. `O=C(O[C@@H]1CCCNC1)N1CCc2ccccc2[C@@H]1c1ccc(F)cc1` (single isomer, unassigned) [Compound 2181] yielded an EC50 of 220 nM. The compound `CN1CCC(C)(OC(=O)N2CCc3ccccc3[C@@H]2c2ccc(F)cc2)CC1` [Compound 2129] returned an EC50 of 358 nM.

`CN1CC2(CC(OC(=O)N3CCc4ccccc4[C@@H]3c3ccc(F)cc3)C2)C1` [Compound 2019] had an EC50 of 965 nM. Against the preceding compound, the EC50 is about 2.7-fold higher.

The compound `O=C([C@H](O)[C@@H]1CN2CCC1CC2)N1CCc2ccccc2[C@@H]1c1ccc(F)cc1` (stereo in doubt) [Compound 2075, 1-((S)-1-(4-fluorophenyl)-3,4-dihydroisoquinolin-2(1H)-yl)-2-hydroxy-2-(quinuclidin-3-yl)ethanone] registered an EC50 of 895 nM. `C#CCN1CCC(OC(=O)N2CCc3ccccc3[C@@H]2c2ccc(F)cc2)CC1` [Compound 2195, 1-(prop-2-yn-1-yl)piperidin-4-yl (S)-1-(4-fluorophenyl)-3,4-dihydroisoquinoline-2(1H)-carboxylate] came in with an EC50 of 1700 nM. The same measure, in the same setting: to `O=C(OCC12CCN(CC1)CC2)N1CCc2ccccc2[C@@H]1c1ccc(F)c(F)c1` [Compound 2110] belongs 7820 nM; to `O=C(N[C@@H]1CN2CCC1CC2)C(=O)N1CCc2ccccc2[C@@H]1c1ccc(F)cc1` [Compound 2104], 1610 nM; to `CN1CCC(COC(=O)N2CCc3ccccc3[C@@H]2c2cc(F)c(F)c(F)c2)CC1` [Compound 2142], 8490 nM.

The same assay, now with this note: Mus musculus, BV-2, PGRN assay, Table D; secreted mouse PGRN in cell culture medium, ELISA.
For `O=C(N[C@@H]1CCNC1)N1CCc2ccccc2[C@@H]1c1ccc(F)cc1` [Compound 2223], the response was half-maximal at 1580 nM (EC50).

`O=C(N1CC[C@]2(CNCCO2)C1)N1CCc2ccccc2[C@H]1c1ccc(F)cc1` (single isomer, unassigned) [Compound 2325]: the EC50 came to 4700 nM.

Compound `O=C(N[C@@H]1CNCCOC1)N1CCc2ccccc2[C@@H]1c1ccc(F)cc1` (single isomer, unassigned) [Compound 2277] returned an EC50 of 1060 nM. For the compound `O=C(N1CCN2CCC1CC2)N1CCc2ccccc2[C@@H]1c1ccc(F)cc1` [Compound 2252], it took 120 nM to reach a half-maximal effect (EC50). Compared with the last compound, the EC50 is about 8.8-fold lower. Same read-out and setting: to `O=C(O[C@H]1CNC[C@@H]1F)N1CCc2ccccc2[C@@H]1c1ccc(F)cc1` [Compound 2361, (3S,4S)-4-fluoropyrrolidin-3-yl (S)-1-(4-fluorophenyl)-3,4-dihydroisoquinoline-2(1H)-carboxylate] belongs 365 nM; to `CN1[C@H]2CC[C@@H]1[C@H](NC(=O)N1CCc3ccccc3[C@@H]1c1ccc(F)cc1)C2` (single isomer, unassigned) [Compound 2225], 1010 nM; to `CN(C(=O)N1CCc2ccccc2[C@@H]1c1ccc(F)cc1)[C@@H]1CNCC1(F)F` [Compound 2296, (S)—N—((R)-4,4-difluoropyrrolidin-3-yl)-1-(4-fluorophenyl)-N-methyl-3,4-dihydroisoquinoline-2(1H)-carboxamide], 4020 nM. In the case of `CN(C(=O)N1CCc2ccccc2[C@H]1c1ccc(F)cc1)[C@@H]1CCCNC1` (single isomer, unassigned) [Compound 2212], the EC50 is 3050 nM. This EC50 and that of the compound before are within 1.5-fold of each other.

As for `O=C(NC1(C2CCNCC2)CC1)N1CCc2ccccc2[C@@H]1c1ccc(F)cc1` [Compound 2208], the midpoint of the response, the EC50, lay at 7220 nM. `CN1CC[C@H](OC(=O)N2CCc3ccccc3[C@@H]2c2ccc(F)cc2)C1` [Compound 2251] came in with an EC50 of 110 nM. `CN1CCN(C(=O)N2CCc3ccccc3[C@@H]2c2ccc(F)cc2)CC(F)(F)C1` [Compound 2261, (S)-(6,6-difluoro-4-methyl-1,4-diazepan-1-yl)(1-(4-fluorophenyl)-3,4-dihydroisoquinolin-2(1H)-yl)methanone hydrochloride] gave an EC50 greater than 10000 nM.

In the case of `CN1CC[C@H](N(C)C(=O)N2CCc3ccccc3[C@@H]2c2ccc(F)cc2)C1` [Compound 2270, (S)-1-(4-fluorophenyl)-N-methyl-N—((S)-1-methylpyrrolidin-3-yl)-3,4-dihydroisoquinoline-2(1H)-carboxamide], a half-maximal effect (EC50) was put at 515 nM. Same read-out and setting: the same measure for `CN1CCC(C2(OC(=O)N3CCc4ccccc4[C@@H]3c3ccc(F)cc3)CC2)CC1` [Compound 2215]: 2700 nM; for `O=C(NC[C@H]1CNCCO1)N1CCc2ccccc2[C@@H]1c1ccc(F)cc1` (single isomer, unassigned) [Compound 2210]: 860 nM; for `O=C(NCC1(F)CNC1)N1CCc2ccccc2[C@@H]1c1ccc(F)cc1` [Compound 2231]: 1040 nM. In the case of `CN(CC1CNC1)C(=O)N1CCc2ccccc2[C@@H]1c1ccc(F)cc1` [Compound 2283, (S)—N-(azetidin-3-ylmethyl)-1-(4-fluorophenyl)-N-methyl-3,4-dihydroisoquinoline-2(1H)-carboxamide], the EC50 is greater than 10000 nM.

Still in this assay, the particulars now being: PGRN assay, Table C; secreted mouse PGRN in cell culture medium, ELISA.
`O=C(OC1CCNCC1)N1CCc2ccccc2[C@@H]1c1ccc(F)cc1` [Compound 2161] yielded an EC50 greater than 10000 nM.
